Entries after “also recorded” stand apart in the source; their conditions may differ.
Key:
[1] = tested on: HepG2 cells; assay: MTT cytotoxicity assay against HepG2; type: cell-based; settings: mean ± SD, n = 3
Description: (§1) The cell lines were supplemented with 10% fetal bovine serum (Sigma-Aldrich, MO, USA) and 1% penicillin–streptomycin. Compounds were added to the cells on the second day at doses of “0, 0.01, 0.1, 1, 10, and 100 μM”. Cell viability was assessed after 48 h using the MTT solution (Promega, USA).

[2] = tested on: THLE2 cells; assay: MTT cytotoxicity assay against THLE2; type: cell-based; settings: Homo sapiens, THLE-2, 48 h, normal liver cells, mean ± SD, n = 3
Description: as §1

[3] = tested on: HepG2 cells; assay: DNA content flow cytometry cell cycle analysis; type: cell-based; settings: HepG2, IC50 values, 48 h; for DNA content %G2/M: control 20.6; for DNA content %S: control 37.59; for DNA content %G0-G1: control 41.81
Description: (§2) HepG2 cells (3–5 105 cells/well) were cultured onto 6-well culture plates and incubated overnight. […] The cells and medium supernatants were then washed with ice-cold PBS. After that, […] of annexin binding buffer solution was added to the cell suspension "25 mM CaCl2, 1.4 M NaCl, and 0.1 M Hepes/NaOH, pH 7.4″ and incubation with “Annexin V-FITC solution (1:100) and propidium iodide (PI)” at a concentration equals 10 µg/mL in the dark for 30 min. The Cytoflex FACS system was then used to acquire the stained cells. cytExpert was used for data analysis.
Kit used : ab139418_Propidium Iodide Flow Cytometry Kit/BD

[4] = molecular target: T1, CDK-2 kinase (Homo sapiens, UniProt P24941); assay: CDK-2 luminescence kinase assay kit; type: biochemical; settings: for IC50: average of three independent replicates
T1 construct: purchased Promega (so in the source) 79,599

[5] = tested on: HepG2 cells; assay: Annexin V/PI staining flow cytometry (apoptosis/necrosis); type: cell-based; design: Apoptosis Total / Apoptosis Early / Apoptosis Late: unit not given here; settings: for total apoptosis (overall apoptotic cell death): untreated control 0.95%; for Apoptosis Late: Cont.HepG2 0.23; for Apoptosis Early: Cont.HepG2 0.72; for Apoptosis Total: Cont.HepG2 2.47
Description: as §2

[6] = molecular target: T2, VEGFR2 kinase (Homo sapiens, UniProt P35968); assay: VEGFR2 (KDR) kinase assay kit; type: biochemical; settings: for IC50: average of three independent replicates
T2 construct: purchased BPS Bioscience 40,325
T2 sequence (P35968 20-1356): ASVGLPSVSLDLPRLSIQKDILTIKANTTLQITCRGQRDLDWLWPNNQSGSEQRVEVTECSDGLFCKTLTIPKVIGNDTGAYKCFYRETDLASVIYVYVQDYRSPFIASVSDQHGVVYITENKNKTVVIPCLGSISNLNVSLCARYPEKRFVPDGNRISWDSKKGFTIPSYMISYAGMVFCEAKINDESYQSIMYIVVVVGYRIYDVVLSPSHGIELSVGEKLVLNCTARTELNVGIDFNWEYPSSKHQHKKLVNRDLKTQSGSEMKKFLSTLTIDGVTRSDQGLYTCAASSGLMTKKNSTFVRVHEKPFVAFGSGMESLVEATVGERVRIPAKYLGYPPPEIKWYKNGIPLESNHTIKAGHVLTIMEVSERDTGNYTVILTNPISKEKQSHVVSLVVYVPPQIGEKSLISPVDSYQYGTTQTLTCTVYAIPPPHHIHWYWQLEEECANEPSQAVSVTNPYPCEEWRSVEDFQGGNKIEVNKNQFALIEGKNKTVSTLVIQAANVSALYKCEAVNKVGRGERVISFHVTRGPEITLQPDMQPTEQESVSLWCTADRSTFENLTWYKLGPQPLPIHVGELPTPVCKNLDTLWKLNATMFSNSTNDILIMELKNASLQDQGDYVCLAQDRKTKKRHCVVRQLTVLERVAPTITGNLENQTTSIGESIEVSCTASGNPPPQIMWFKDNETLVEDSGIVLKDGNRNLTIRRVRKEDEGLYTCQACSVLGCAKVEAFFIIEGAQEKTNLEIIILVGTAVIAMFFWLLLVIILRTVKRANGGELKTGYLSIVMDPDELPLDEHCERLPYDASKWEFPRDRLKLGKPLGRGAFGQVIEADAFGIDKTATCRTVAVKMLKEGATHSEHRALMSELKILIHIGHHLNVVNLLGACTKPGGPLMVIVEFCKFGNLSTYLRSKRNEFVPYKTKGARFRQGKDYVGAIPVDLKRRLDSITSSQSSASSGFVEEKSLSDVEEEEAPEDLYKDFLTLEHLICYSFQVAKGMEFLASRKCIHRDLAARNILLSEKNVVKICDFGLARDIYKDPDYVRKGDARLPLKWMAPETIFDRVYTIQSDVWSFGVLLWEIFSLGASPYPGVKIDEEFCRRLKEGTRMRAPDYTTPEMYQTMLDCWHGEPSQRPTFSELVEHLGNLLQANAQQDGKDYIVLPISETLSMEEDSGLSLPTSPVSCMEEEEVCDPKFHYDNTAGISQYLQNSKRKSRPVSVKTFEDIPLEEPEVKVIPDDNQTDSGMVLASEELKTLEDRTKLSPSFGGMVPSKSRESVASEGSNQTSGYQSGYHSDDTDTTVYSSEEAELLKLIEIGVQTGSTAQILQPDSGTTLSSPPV

[7] = tested on: HepG2 liver cancer cells; design: method as in PMID 32559576, PMID 37234266, doi:10.1016/j.molstruc.2023.135765; settings: Fig. 1; read-out: IC50 against HepG2 liver cancer cells; cited from earlier work
[8] = HepG2, at the IC50 values, 48 h
[9] = HepG2, at the IC50 values, 48 h, untreated control 1.52%
[10] = supplement lab report, HepG2, Cont.HepG2 1.52

## CC1=NN(C(c2ccccc2)N2CCCCC2)C(=O)C1N=Nc1ccccc1[N+](=O)[O-] (stereo not drawn) [Compound 4b, 5-Methyl-4-((2-nitrophenyl)diazenyl)-2-(phenyl(piperidin-1-yl)methyl)-2,4-dihydro-3H-pyrazol-3-one]
[1]; 48 h
  IC50: 9.34 ± 0.52 µM
[1]; Homo sapiens, HepG2, 48 h
  IC50: 9.33 µM
[2]
  IC50: 72.4 ± 2.15 µM

## CC1=NN(C(c2ccccc2)N2CCOCC2)C(=O)C1N=Nc1ccccc1 (stereo not drawn) [Compound 3a, 5-Methyl-2-(morpholino(phenyl)methyl)-4-(phenyldiazenyl)-2,4-dihydro-3H-pyrazol-3-one]
[1]; Homo sapiens, HepG2, 48 h
  IC50: 33.9 ± 1.89 µM
[2]
  IC50: 41.2 ± 1.19 µM

## Cc1nn(C(Nc2c(C)n(C)n(-c3ccccc3)c2=O)c2ccccc2)c(O)c1N=Nc1ccccc1[N+](=O)[O-] (stereo not drawn) [Compound 6b, 4-(((5-Hydroxy-3-methyl-4-((2-nitrophenyl)diazenyl)-1H-pyrazol-1-yl)(phenyl)methyl)amino)-1,5-dimethyl-2-phenyl-1,2-dihydro-3H-pyrazol-3-one]
[1]; Homo sapiens, HepG2, 48 h
  IC50: 2.52 ± 0.12 µM
[3]
  cell cycle phase of growth arrest (Comment): S-phases; also recorded: S phase
  DNA content %G2/M: 12.49%
  DNA content %S: 41.33%
  DNA content %G0-G1: 46.18%
[3]; listed as s31
  cell cycle phase of growth arrest (Comment): cell growth arrest@ G1/S
[4]
  inhibition at 10 µM: 88.7 ± 2.6%
  IC50: 0.458 ± 0.017 µM
[5]; [8]
  total apoptosis (overall apoptotic cell death): 42.9%
[5]; [9]
  necrosis: 7.54%
[5]; supplement lab report, HepG2
  Apoptosis Late: 14.48
  Apoptosis Early: 29.17
  Apoptosis Total: 51.19
[5]; [10]
  necrosis: 7.54
[6]
  inhibition at 10 µM: 93.2 ± 2.9%
  IC50: 0.2 ± 0.001 µM
[2]
  IC50: 60.2 ± 2.54 µM

## Cc1nn(C(Nc2c(C)n(C)n(-c3ccccc3)c2=O)c2ccccc2)c(O)c1N=Nc1ccccc1 (stereo not drawn) [Compound 6a, 4-(((5-Hydroxy-3-methyl-4-(phenyldiazenyl)-1H-pyrazol-1-yl)(phenyl)methyl)amino)-1,5-dimethyl-2-phenyl-1,2-dihydro-3H-pyrazol-3-one]
[2]
  IC50: 75.3 ± 3.3 µM

## COc1cccc2c1C(=O)c1c(O)c3c(c(O)c1C2=O)C[C@@](O)(C(=O)CO)C[C@@H]3O[C@H]1C[C@H](N)[C@H](O)[C@H](C)O1 [doxorubicin, reference compound]
[1]; Homo sapiens, HepG2, 48 h
  IC50: 2.05 µM

## Cc1nn(C(Nc2ccccc2[N+](=O)[O-])c2ccccc2)c(O)c1N=Nc1ccccc1 (stereo not drawn) [Compound 5b, 3-Methyl-1-((2-nitrophenylamino)(phenyl)methyl)-4-(phenyldiazenyl)-1H-pyrazol-5-ol]
[1]; 48 h
  IC50: 17.3 ± 0.8 µM
[1]; Homo sapiens, HepG2, 48 h
  IC50: 17.1 µM
[2]
  IC50: 65.2 ± 2.3 µM

## CC1=NN(C(c2ccccc2)N2CCOCC2)C(=O)C1N=Nc1ccccc1[N+](=O)[O-] (stereo not drawn) [Compound 3b, 5-Methyl-2-(morpholino(phenyl)methyl)-4-((2-nitrophenyl)diazenyl)-2,4-dihydro-3H-pyrazol-3-one]
[1]; Homo sapiens, HepG2, 48 h
  IC50: 55.5 ± 3.1 µM
[2]
  IC50: 47.2 ± 1.85 µM

## Cc1nn(C(Nc2ccccc2)c2ccccc2)c(O)c1N=Nc1ccccc1 (stereo not drawn) [Compound 5a, 3-Methyl-1-(phenyl(phenylamino)methyl)-4-(phenyldiazenyl)-1H-pyrazol-5-ol]
[1]; Homo sapiens, HepG2, 48 h
  IC50: 3.46 ± 0.16 µM
[3]
  DNA content %G2/M: 15.61%
  DNA content %S: 35.21%
  DNA content %G0-G1: 49.18%
[3]; listed as s20
  cell cycle phase of growth arrest (Comment): cell growth arrest@ G1
[4]
  inhibition at 10 µM: 91 ± 2.1%
  IC50: 0.311 ± 0.011 µM
[5]; [8]
  total apoptosis (overall apoptotic cell death): 38.32%
[5]; [9]
  necrosis: 4.63%
[5]; supplement lab report, HepG2
  Apoptosis Late: 11.55
  Apoptosis Early: 26.77
  Apoptosis Total: 42.95
[5]; [10]
  necrosis: 4.63
[6]
  inhibition at 10 µM: 91.7 ± 3.1%
  IC50: 0.267 ± 0.001 µM
[2]
  IC50: 48.7 ± 2.05 µM

## CC1=NN(C(c2ccccc2)N2CCCCC2)C(=O)C1N=Nc1ccccc1 (stereo not drawn) [Compound 4a, 5-Methyl-2-(phenyl(piperidin-1-yl)methyl)-4-(phenyldiazenyl)-2,4-dihydro-3H -pyrazol-3-one]
[1]; 48 h
  IC50: 4.43 ± 0.25 µM
[1]; Homo sapiens, HepG2, 48 h
  IC50: 4.4 µM
[4]
  inhibition at 10 µM: 90.9 ± 1.9%
  IC50: 0.205 ± 0.011 µM
[6]
  inhibition at 10 µM: 90.5 ± 2.1%
  IC50: 0.55 ± 0.006 µM
[2]
  IC50: 27.3 ± 1.15 µM

## COc1ccc(OC)c(NC(=O)c2cc(-c3c[nH]c4ccccc34)n[nH]2)c1 [SI]
[7]
  IC50: 0.6 µM

## CNC(=O)c1cc(Oc2ccc(NC(=O)Nc3ccc(Cl)c(C(F)(F)F)c3)cc2)ccn1 [Sorafenib, reference compound]
[2]
  IC50: 17 ± 0.72 µM

## CC1=NN(C(c2ccccc2)N2CCCCC2)C(=O)C1N=Nc1ccc(Cl)cc1 (stereo not drawn) [Compound 4c, 4-((4-Chlorophenyl)diazenyl)-5-methyl-2-(phenyl(piperidin-1-yl)methyl)-2,4-dihydro-3H-pyrazol-3-one]
[1]; Homo sapiens, HepG2, 48 h
  IC50: 25.2 ± 1.41 µM
[2]
  IC50: 34.7 ± 1.05 µM

## CC1=NN(C(c2ccccc2)N2CCOCC2)C(=O)C1N=Nc1ccc(Cl)cc1 (stereo not drawn) [Compound 3c, 4-((4-Chlorophenyl)diazenyl)-5-methyl-2-(morpholino(phenyl)methyl)-2,4-dihydro-3H-pyrazol-3-one]
[2]
  IC50: 34.5 ± 2.1 µM

Reference: PMC11520136, “Design, synthesis, and biological investigations of new pyrazole derivatives as VEGFR2/CDK-2 inhibitors targeting liver cancer” (BMC Chemistry, 2024)
